doi:10.1101/2025.02.01.636040v1 (bioRxiv, 2025)

Assays:
CHIKVP [1] = target: T1, CHIKVP (Chikungunya virus, UniProt Q8JUX6); conditions: 500 μM peptide, 5 μM CHIKVP, 1 hour, LC-MS extracted ion chromatograms
CHIKVP [2] = target: T1, CHIKVP; conditions: 500 µM of each peptide mixed, 5 µM CHIKVP, 10 minutes, LC-MS/UV peak area
CHIKVP [3] = target: T1, CHIKVP; conditions: 300 µM CHIKVP, 1.5 mM peptide, 10 min, 298 K, 75 mM deuterated Tris pH 7.5

T1 sequence (Q8JUX6 1004-1327 limits assumed): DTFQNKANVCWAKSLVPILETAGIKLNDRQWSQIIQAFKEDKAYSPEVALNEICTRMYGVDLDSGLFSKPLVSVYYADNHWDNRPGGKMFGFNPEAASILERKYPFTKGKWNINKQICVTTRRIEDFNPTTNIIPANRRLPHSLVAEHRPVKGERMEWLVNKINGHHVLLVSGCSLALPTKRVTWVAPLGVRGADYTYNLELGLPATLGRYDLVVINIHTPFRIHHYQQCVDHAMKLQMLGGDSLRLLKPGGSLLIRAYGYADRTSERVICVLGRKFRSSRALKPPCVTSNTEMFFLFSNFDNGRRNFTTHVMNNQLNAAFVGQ

Substance	cleavage by CHIKVP by LC-MS (CHIKVP [1])	decrease in peak area (CHIKVP [2]) [%]	binding to CHIKVP from 1H-NMR line broadening (CHIKVP [3])
DELRLDRAGG/YIFSS	effectively cleaved	54.1	more potent binder of CHIKVP
VEQLEDRAGA/GIIGGSRR	effectively cleaved	52.7	
